In this experiment the target is Translocator protein (Rattus norvegicus, UniProt P16257). The experiment can be described thus: Displacement of [3H]PK 11195 from PBR in Sprague-Dawley rat cerebral cortex. Type of experiment: tissue-based. A general note: Displacement assays read how much labelled ligand stays bound in the presence of the test substance.

The term IC50 denotes the concentration that inhibits the measured activity by half.

Chain of Translocator protein (P16257 whole entry, looked up): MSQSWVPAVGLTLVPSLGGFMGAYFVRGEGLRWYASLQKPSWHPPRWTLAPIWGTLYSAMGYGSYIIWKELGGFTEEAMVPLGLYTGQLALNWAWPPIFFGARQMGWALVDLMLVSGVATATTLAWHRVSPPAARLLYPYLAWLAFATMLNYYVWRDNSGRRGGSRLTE

Compound `CCCN(CCC)C(=O)Cc1c(-c2nccs2)nc2c(Cl)cc(Cl)cn12` had an IC50 of 2.81 nM.

Source of the values: ChEMBL document CHEMBL1142859, “Synthesis and characterization of a platinum(II) complex tethered to a ligand of the peripheral benzodiazepine receptor” (J Med Chem, 2007).
